Legend:
[1] = test system: primary human osteoclasts (enriched monocytic cells); test: Cell viability assay (methylene blue); type: cell-based; settings: 48 h incubation
Description: Figure 5 Labeling of endogenous cathepsin K in intact human osteoclast cells. Enriched human monocytes from PBMC were isolated from healthy donors’ blood, cells were treated with MCSF and RANKL or MCSF alone as indicated for 14 days. a–c) Osteoclasts were treated with vehicle (DMSO) or inhibitors ODN or GD30 [3 µM] in a culture medium for 2 h, followed by incubation with GD32 or GD42 for 8 h or GB123 for 2 h similar to as described in Figure 4. (a, b) Confocal fluorescent microscopy of GD32 and GB123 treated cells after fixation. c) Live cell imaging with GD42. d) SDS PAGE of the human osteoclasts and macrophages incubated with DMSO, ODN or GD30 [5 µM] followed by incubation with GD32 or GD42 [5 µM] for 8 h. e) The same gel was analyzed by western blot with an anti‐CTSK antibody. […] Red fluorescence marks cathepsin activity (ABPs) and blue fluorescence marks nucleus (DAPI). g–i) Cell viability assay. […] After 48 h incubation cells were fixed, and viability was measured by methylene blue. The data were expressed as a percentage of control; data represent the mean of two experiments with triplicates for each treatment (± Standard Deviation). […]
with 5µM GD32 for 24 h prior to the cell lysis. Cell lysates were prepared and analyzed as […]
analyzed as previously described. […]
After 48 h cells were fixed, and viability was measured by quantitative colorimetric assay using […]

CTSB = CTSB (Homo sapiens, UniProt P07858); test: In vitro kinetic evaluation of cathepsin inhibition, fluorescent substrate Z-FR-AMC; type: biochemical; settings: for mode of inhibition: CTSB; for Ki: CTSB 5 nM, pH 6, 37 °C
Description: used for TLC. Phosphate Buffer Saline (PBS) was purchased from Biological Industries (pH = […]
7.4) and was used as a buffer system in all experiments if not indicated otherwise. […]
Recombinant human CTSB, CTSK, CTSL, and CTSS were supplied by B. Turk (J. […]
In vitro kinetic evaluation of labeling recombinant cathepsins:
Reactions were monitored for 30 min at 37° C in 96-well black flat-bottom microplates […]
(Greiner, Germany) using Tecan INFINITE M1000 pro plate reader (Tecan, Switzerland), […]
substrates Z-RR-AMC (CTSL) or Z-FR-AMC (CTSS, CTSB and CTSK), and excitation and […]
emission wavelengths of 370 and 460 nm, respectively. Cathepsin concentrations in the assay were 0.4 nM (CTSK) or 5 nM (CTSS, CTSB, and CTSL). The buffer was 100 mM Na2HPO4/NaH2PO4, 50 mM NaCl, 5 mM DTT, 0,1% Peg-6000, pH 6. For irreversible inhibitors, reaction data were fitted to the one-phase association formula in GraphPad Prism 9 software: Y=Y0 + (Plateau-Y0)*(1-exp(-K*X)) where in this case Y0 and Y represent fluorescence signal at times 0 and t, respectively, K represent the observed reaction rate kobs and X the inhibitor concentration. Inactivation rates at each inhibitor concentration were obtained by subtracting the inactivation observed in the control sample: kobs – kctrl. The maximal rate of inactivation (kinact) was obtained as the asymptote from equation Y = kinact*X/(Kiapp + X) where X is inhibitor concentration, Y is the observed inactivation rate for each X, and Kiapp is the apparent inhibition constant. Ki values were calculated from IC50 or from Kiapp using formulas Ki = Kiapp / (1 + Km/S) and IC50 = E0/2 + Kiapp, where Km stands for Michalis-Menten constant, S for substrate concentration and E0 for cathepsin concentration.
The highest inhibitor concentrations in the assay were 50 µM. Measurements were performed in several independent duplicates. Average values are presented with standard deviations. […]
µM) were pretreated with different concentrations of probes (GD32, GD36, GD37, or GD42)

| SMILES | cytotoxicity [1] | mode of inhibition (CTSB) | Ki (CTSB) |
| --- | --- | --- | --- |
| C#CCNC(=O)[C@H](CC(C)C)N[C@@H](c1ccc(-c2ccc(S(=O)(=O)CCNC(=O)OC(C)(C)C)cc2)cc1)C(F)(F)F [GD30] | No toxicity | – | – |
| C#CCNC(=O)[C@H](CC(C)C)N[C@@H](c1ccc(-c2ccc(S(=O)(=O)CCNC(=O)CCCCC[N+]3=C(/C=C/C=C/C=C4/N(C)c5ccc(S(=O)(=O)O)cc5C4(C)C)C(C)(C)c4cc(S(=O)(=O)O)ccc43)cc2)cc1)C(F)(F)F [GD32] | No toxicity | Reversible | 9.4 µM |
| CC(C)C[C@H](N[C@@H](c1ccc(-c2ccc(S(=O)(=O)CCNC(=O)CCCCC[N+]3=C(/C=C/C=C/C=C4/N(C)c5ccc(S(=O)(=O)O)cc5C4(C)C)C(C)(C)c4cc(S(=O)(=O)O)ccc43)cc2)cc1)C(F)(F)F)C(=O)NC1(C#N)CC1 [GD37] | – | Reversible | 5.9 µM |

Source: article PMC11481179, “Development and Application of Reversible and Irreversible Covalent Probes for Human and Mouse Cathepsin‐K Activity Detection, Revealing Nuclear Activity” (Advanced Science, 2024)
